The numbers were not newly measured in publication PMC9851200, “Multiparameter phenotypic screening for endogenous TFEB and TFE3 translocation identifies novel chemical series modulating lysosome function” (Autophagy, 2022), which cites them from elsewhere.

What all share (design): method as in original PKIS2 published data
Data set [1] deals with T1, kinases (KINOMEscan panel) (Homo sapiens, UniProt Q9Y616).
T1 sequence (Q9Y616 1-596): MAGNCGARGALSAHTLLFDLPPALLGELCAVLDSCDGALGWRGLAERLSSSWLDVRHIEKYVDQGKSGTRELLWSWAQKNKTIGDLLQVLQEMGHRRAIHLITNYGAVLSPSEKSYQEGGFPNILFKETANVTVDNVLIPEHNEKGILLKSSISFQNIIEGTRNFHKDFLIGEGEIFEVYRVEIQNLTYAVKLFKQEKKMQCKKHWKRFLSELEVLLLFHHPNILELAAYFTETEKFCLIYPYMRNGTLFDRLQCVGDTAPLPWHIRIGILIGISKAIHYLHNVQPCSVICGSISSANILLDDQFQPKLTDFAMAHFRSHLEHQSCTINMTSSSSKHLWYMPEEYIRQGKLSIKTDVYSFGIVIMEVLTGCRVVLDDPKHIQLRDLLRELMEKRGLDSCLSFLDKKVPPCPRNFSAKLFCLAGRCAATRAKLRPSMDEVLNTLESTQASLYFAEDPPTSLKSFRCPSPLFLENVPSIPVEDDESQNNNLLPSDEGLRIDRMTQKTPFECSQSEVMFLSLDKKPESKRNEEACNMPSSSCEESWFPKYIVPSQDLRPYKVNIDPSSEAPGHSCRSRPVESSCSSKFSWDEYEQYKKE
Conditions: IRAK3; Published KINOMEscan; ref original PKIS2 published data; cited from earlier work.

Data set [2] deals with T2, kinases (KINOMEscan panel) (Homo sapiens, UniProt Q15835).
T2 sequence (Q15835 1-563): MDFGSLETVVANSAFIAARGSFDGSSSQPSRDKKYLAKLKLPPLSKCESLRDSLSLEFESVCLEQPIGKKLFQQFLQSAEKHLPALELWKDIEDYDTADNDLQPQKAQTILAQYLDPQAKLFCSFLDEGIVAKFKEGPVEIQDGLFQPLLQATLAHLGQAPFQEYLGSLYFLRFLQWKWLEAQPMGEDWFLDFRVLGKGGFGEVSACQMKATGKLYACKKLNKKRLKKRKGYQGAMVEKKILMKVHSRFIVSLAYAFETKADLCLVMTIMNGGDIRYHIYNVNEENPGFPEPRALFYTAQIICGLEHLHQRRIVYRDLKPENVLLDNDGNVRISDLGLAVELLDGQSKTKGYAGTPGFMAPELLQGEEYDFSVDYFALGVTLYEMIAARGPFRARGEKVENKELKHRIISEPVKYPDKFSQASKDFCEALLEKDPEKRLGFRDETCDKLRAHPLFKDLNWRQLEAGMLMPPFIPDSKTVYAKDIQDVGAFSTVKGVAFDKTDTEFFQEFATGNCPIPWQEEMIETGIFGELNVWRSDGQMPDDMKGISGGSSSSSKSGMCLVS
Conditions: Published KINOMEscan; ref original PKIS2 published data; cited from earlier work.

Data set [3] deals with kinases (KINOMEscan panel) (Homo sapiens, UniProt Q14004). Conditions: cited from earlier work.
In data set [4] the target is kinases (KINOMEscan panel) (Homo sapiens, UniProt P00519). Conditions: Published KINOMEscan, ref original PKIS2 published data, cited from earlier work.
Data set [5] concerns the target kinases (KINOMEscan panel) (Homo sapiens, UniProt P32298). Conditions: kinase GRK4; Published KINOMEscan; ref original PKIS2 published data; cited from earlier work.
The target in data set [6] is kinases (KINOMEscan panel) (Homo sapiens, UniProt P49760). The following applies: kinase CLK2; Published KINOMEscan; ref original PKIS2 published data; cited from earlier work.
Data set [7] deals with T3, kinases (KINOMEscan panel) (Homo sapiens, UniProt Q92772).
T3 sequence (Q92772 1-493): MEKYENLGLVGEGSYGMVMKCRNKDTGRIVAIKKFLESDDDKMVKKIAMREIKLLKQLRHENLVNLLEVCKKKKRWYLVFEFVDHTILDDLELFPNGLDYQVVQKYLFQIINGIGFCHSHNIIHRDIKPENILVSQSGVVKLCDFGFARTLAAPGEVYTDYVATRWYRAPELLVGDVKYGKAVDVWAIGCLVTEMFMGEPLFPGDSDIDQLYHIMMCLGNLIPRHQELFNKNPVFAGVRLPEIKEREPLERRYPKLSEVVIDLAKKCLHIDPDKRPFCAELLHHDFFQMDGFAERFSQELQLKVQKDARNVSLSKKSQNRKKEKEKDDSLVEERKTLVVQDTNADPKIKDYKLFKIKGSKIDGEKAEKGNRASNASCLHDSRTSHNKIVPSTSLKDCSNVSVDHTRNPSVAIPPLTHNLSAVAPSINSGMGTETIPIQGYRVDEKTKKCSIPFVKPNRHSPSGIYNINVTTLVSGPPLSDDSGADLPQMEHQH
Conditions: CDKL2; Published KINOMEscan; ref original PKIS2 published data; cited from earlier work.

Data set [8] has as its target kinases (KINOMEscan panel) (Homo sapiens, UniProt P43405). Conditions: SYK; Published KINOMEscan; ref original PKIS2 published data; cited from earlier work.
In data set [9] the target is kinases (KINOMEscan panel) (Homo sapiens, UniProt Q07912). The following applies: TNK2; Published KINOMEscan; ref original PKIS2 published data; cited from earlier work.
Data set [10] has as its target kinases (KINOMEscan panel) (Homo sapiens, UniProt O95819). The following applies: MAP4K4; Published KINOMEscan; ref original PKIS2 published data; cited from earlier work.

Chain of kinases (KINOMEscan panel) (Homo sapiens, UniProt P00519) (P00519 whole entry): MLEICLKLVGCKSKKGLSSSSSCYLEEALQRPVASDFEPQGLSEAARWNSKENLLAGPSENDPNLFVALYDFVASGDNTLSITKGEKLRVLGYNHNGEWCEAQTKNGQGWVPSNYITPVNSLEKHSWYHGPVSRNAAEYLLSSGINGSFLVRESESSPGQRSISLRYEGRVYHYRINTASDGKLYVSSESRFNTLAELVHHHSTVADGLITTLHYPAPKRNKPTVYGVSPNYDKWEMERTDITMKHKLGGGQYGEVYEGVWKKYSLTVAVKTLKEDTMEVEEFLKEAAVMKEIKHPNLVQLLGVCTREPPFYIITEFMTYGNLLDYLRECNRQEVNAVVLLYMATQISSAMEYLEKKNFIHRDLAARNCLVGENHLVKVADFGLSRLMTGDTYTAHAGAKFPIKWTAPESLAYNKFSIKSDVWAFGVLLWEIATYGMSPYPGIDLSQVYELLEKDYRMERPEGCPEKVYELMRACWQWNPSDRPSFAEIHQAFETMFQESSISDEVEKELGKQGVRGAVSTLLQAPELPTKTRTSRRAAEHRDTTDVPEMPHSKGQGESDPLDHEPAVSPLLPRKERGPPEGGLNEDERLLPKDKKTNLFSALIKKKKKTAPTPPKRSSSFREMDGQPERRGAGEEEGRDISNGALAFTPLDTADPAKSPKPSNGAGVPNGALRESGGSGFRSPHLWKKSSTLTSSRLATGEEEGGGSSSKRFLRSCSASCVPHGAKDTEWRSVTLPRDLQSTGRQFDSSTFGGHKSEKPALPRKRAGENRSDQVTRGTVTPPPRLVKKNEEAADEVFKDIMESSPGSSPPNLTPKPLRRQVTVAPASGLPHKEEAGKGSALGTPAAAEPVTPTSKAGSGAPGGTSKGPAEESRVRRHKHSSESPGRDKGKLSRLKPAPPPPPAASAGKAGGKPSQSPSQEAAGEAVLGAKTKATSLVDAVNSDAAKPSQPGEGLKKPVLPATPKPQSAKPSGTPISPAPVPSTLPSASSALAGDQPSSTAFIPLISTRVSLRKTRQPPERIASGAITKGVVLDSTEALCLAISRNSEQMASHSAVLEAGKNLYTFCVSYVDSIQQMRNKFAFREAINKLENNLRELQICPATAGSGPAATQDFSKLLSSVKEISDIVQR
Chain of kinases (KINOMEscan panel) (Homo sapiens, UniProt Q14004) (Q14004 whole entry): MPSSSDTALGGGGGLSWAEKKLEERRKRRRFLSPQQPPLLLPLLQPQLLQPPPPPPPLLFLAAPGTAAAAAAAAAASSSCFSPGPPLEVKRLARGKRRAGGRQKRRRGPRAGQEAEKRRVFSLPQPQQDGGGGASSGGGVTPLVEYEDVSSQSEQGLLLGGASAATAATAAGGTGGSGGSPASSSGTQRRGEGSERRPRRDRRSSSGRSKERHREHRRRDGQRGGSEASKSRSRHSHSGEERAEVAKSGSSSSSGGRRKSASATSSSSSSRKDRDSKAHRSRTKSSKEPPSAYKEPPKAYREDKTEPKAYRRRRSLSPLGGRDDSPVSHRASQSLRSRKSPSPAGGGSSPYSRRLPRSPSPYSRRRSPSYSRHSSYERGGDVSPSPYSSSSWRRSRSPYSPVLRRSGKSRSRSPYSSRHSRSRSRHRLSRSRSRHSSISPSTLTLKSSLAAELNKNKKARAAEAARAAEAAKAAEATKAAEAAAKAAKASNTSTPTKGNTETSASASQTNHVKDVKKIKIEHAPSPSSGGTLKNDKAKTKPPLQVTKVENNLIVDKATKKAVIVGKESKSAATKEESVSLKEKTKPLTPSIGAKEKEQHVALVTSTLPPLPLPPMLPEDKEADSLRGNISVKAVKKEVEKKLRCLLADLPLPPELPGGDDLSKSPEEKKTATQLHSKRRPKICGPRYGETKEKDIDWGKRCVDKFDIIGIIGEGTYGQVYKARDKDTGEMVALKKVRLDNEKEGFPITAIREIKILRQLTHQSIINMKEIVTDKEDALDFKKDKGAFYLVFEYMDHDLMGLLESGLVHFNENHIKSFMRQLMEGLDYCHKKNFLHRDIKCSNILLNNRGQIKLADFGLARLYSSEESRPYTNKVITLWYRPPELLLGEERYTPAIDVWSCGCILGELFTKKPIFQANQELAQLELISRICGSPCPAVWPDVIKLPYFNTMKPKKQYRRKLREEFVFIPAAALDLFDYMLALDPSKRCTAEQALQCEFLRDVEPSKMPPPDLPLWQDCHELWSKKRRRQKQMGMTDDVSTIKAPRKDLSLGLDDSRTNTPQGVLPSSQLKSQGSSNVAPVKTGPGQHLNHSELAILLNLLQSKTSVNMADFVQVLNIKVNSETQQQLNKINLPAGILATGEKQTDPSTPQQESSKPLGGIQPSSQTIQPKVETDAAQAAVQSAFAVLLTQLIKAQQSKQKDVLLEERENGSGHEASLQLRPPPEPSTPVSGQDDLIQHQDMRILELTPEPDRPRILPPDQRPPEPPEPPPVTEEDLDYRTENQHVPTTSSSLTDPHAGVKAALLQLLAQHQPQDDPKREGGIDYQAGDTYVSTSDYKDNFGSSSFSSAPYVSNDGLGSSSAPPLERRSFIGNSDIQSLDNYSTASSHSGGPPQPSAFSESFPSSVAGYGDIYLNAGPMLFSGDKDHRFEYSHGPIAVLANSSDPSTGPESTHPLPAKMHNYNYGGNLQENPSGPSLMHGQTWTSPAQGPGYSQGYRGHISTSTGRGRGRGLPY
Chain of kinases (KINOMEscan panel) (Homo sapiens, UniProt P32298) (P32298 whole entry): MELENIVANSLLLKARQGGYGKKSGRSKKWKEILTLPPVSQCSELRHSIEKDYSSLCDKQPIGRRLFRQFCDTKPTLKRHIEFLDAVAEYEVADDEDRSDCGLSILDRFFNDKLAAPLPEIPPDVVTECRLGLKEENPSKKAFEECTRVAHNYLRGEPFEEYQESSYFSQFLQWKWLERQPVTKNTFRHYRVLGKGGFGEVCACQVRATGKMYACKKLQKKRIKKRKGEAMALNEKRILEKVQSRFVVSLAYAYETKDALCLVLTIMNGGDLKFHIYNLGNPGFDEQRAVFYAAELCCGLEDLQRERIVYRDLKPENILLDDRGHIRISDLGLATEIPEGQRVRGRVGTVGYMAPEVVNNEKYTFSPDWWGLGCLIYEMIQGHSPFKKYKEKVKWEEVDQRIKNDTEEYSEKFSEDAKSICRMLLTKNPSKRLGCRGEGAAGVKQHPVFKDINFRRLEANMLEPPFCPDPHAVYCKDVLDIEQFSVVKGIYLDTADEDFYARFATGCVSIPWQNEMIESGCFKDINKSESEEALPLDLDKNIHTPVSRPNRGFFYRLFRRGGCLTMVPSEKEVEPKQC
Chain of kinases (KINOMEscan panel) (Homo sapiens, UniProt Q07912) (Q07912 whole entry): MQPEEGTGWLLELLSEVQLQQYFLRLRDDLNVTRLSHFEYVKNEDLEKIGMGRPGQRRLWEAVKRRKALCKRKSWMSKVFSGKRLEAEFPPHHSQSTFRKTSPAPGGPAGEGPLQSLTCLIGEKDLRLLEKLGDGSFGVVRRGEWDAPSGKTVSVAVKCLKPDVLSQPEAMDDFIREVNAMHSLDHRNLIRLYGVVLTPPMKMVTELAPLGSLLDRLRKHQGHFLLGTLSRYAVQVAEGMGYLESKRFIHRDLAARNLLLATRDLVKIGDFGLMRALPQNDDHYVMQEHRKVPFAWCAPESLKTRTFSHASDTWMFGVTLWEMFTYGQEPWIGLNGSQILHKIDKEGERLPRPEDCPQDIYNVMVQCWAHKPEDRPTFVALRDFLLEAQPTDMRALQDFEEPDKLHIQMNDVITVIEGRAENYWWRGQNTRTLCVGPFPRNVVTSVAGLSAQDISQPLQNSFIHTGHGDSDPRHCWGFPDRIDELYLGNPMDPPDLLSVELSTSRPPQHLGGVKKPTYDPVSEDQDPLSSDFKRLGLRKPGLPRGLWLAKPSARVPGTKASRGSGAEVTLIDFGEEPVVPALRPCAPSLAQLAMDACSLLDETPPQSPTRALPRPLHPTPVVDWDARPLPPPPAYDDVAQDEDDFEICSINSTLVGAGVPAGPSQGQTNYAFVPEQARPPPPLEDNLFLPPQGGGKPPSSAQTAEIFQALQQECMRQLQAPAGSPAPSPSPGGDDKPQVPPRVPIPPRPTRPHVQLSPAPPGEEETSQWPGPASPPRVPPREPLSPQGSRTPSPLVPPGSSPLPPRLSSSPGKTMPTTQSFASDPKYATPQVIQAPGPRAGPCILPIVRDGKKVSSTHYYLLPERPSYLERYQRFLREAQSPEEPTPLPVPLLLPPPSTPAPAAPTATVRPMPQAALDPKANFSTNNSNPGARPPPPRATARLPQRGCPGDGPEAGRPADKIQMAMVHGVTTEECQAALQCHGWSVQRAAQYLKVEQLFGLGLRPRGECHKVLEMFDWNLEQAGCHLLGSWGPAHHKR
Chain of kinases (KINOMEscan panel) (Homo sapiens, UniProt P49760) (P49760 whole entry): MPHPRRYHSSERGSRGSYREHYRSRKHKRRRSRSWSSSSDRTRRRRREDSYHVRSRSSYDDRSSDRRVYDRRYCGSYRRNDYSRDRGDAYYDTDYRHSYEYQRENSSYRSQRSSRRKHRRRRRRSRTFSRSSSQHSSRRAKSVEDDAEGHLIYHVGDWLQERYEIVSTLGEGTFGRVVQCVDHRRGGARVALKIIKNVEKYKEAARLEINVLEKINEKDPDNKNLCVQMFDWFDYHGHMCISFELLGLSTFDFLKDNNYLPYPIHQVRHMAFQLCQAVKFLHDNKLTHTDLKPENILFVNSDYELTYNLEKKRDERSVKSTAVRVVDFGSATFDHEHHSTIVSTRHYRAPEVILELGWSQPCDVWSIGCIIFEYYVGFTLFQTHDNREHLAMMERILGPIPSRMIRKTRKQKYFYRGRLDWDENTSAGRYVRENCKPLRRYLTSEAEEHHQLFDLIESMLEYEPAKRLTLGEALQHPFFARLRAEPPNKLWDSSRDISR

Turning to `Cc1cccc(-c2nc(Nc3ccncc3)c3ccccc3n2)n1` [NK215], in data set [1], the “KINOMEscan IRAK3” value is 21. Moreover, the “KINOMEscan GRK1” value in data set [2] is 0. The “KINOMEscan CDK13” value in data set [3] is listed as 0. The “KINOMEscan ABL1-nonphosphorylated” value in [4] (ABL1-nonphosphorylated) is 39. The “KINOMEscan ABL1-phosphorylated” value in data set [4] (ABL1-phosphorylated) was 28. The “KINOMEscan GRK4” value in data set [5] is 0. For the same compound, the “KINOMEscan CLK2” value in data set [6] is given as 8. Besides, the “KINOMEscan CDKL2” value in data set [7] is on record as 10. In data set [8], the “KINOMEscan SYK” value is on record as 14. Besides, in data set [9], the “KINOMEscan TNK2” value is 0. Also, the “KINOMEscan MAP4K4” value in [10] was 0.
